Laboratory results reported in the supplement of paper PMC12137928.
Counter-ions that a name gives are not always drawn.

Tests used:
HCT116 [1] = conditions: 72 h
Procedure, shortened: (§1)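 HCT116 cells were seeded at 250 per well in 1536-well plates with 5 h allowed for attachment. CellTiter-Glo luminescence was normalized against vehicle (0%) and positive control (-100%) before pattern correction. The IC50 and maximal efficacy figures derive from four-parameter Hill fits.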

HCT116 [2] = test: efficacy (maximum % inhibition of viability vs DMSO); higher = more cytotoxic; conditions: 72 h
Procedure, shortened: as §1

IC50 cell viability (HCT116 [1]; ICRF193 0 nM) | IC50 cell viability (HCT116 [1]; ICRF193 200 nM) | Structure (SMILES) | efficacy (HCT116 [2]; ICRF193 0 nM) | efficacy (HCT116 [2]; ICRF193 200 nM)
3.66 µM | 2.31 µM | CN(C)c1ccc2nc3ccc(=[N+](C)C)cc-3sc2c1 [Methylene blue] | 109% | 91.6%
0.326 µM | 0.164 µM | CN(C)c1ccc(C(=C2C=CC(=[N+](C)C)C=C2)c2ccc(N(C)C)cc2)cc1 [Methylrosaniline chloride] | 89.5% | 90.4%
20.6 µM | 25.9 µM | CN1CCCC(CC2c3ccccc3Sc3ccccc32)C1 (centres undefined) [Metixene hydrochloride] | 109% | 94.6%
23.1 µM | 29.1 µM | CN1CCN2c3ccccc3Cc3ccccc3C2C1 (centres undefined) [Mianserin] | 51% | 62%
11.6 µM | 16.4 µM | CCCCCCCCCCCCCCCCCCNC(=O)OC1CCN(C(=O)OC[C@H](COC(=O)N(Cc2cccc[n+]2CC)C(=O)c2ccccc2OC)OC)CC1 [Minopafant] | 111% | 124%
11.6 µM | 8.2 µM | CCCCCCCCCCCCCC[n+]1ccc(C)cc1 [Miripirium chloride] | 104% | 70%
18.3 µM | 20.6 µM | C[C@@H]1C[C@H]2[C@@H]3CCC4=CC(=O)C=C[C@]4(C)[C@@]3(Cl)[C@@H](O)C[C@]2(C)[C@@]1(OC(=O)c1ccco1)C(=O)CCl [Mometasone furoate] | 102% | 97.9%
23.1 µM | 23.1 µM | O=C(CCCN1CCN(c2ccc(F)cc2)CC1)NC1c2ccccc2CSc2ccccc21 (centres undefined) [Monatepil] | 123% | 93.7%
23.1 µM | 20.6 µM | C[C@](C#N)(COc1cc(C#N)ccc1C(F)(F)F)NC(=O)c1ccc(SC(F)(F)F)cc1 [Monepantel] | 98.1% | 90.3%
20.6 µM | 23.1 µM | O=C1NC2CCCCN2C12CCN(CCCN1c3ccccc3CCc3ccc(Cl)cc31)CC2 (centres undefined) [Mosapramine] | 125% | 129%
20.6 µM | 16.4 µM | CO/N=C1\C[C@]2(C[C@@H]3C[C@@H](C/C=C(\C)C[C@@H](C)/C=C/C=C4\CO[C@@H]5[C@H](O)C(C)=C[C@@H](C(=O)O3)[C@]45O)O2)O[C@H](/C(C)=C/C(C)C)[C@H]1C [Moxidectin] | 128% | 111%
1.83 µM | 1.64 µM | COc1c(C)c2c(c(O)c1C/C=C(\C)CCC(=O)OCCN1CCOCC1)C(=O)OC2 [Mycophenolate mofetil] | 74% | 74.4%
1.83 µM | 2.59 µM | COc1c(C)c2c(c(O)c1C/C=C(\C)CCC(=O)O)C(=O)OC2 [Mycophenolic acid] | 70.7% | 92.4%
> 45.8 µM | 20.6 µM | Cc1ccc2nc(N)[nH]c(=O)c2c1Sc1ccncc1 [NOLATREXED HCL] | – | 45.1%
32.6 µM | 29.1 µM | CN(C/C=C/c1ccccc1)Cc1cccc2ccccc12 [Naftifine hydrochloride] | 49.9% | 54%
> 45.8 µM | 23.1 µM | COc1ccccc1N1CCN(CC(O)COc2cccc3ccccc23)CC1 (centres undefined) [Naftopidil] | – | 62.6%
14.6 µM | 18.3 µM | CCc1nn(CCCN2CCN(c3cccc(Cl)c3)CC2)c(=O)n1CCOc1ccccc1 [Nefazodone hydrochloride] | 42.5% | 63.8%
29.1 µM | 20.6 µM | Cc1c(O)cccc1C(=O)N[C@@H](CSc1ccccc1)[C@H](O)CN1C[C@H]2CCCC[C@H]2C[C@H]1C(=O)NC(C)(C)C [Nelfinavir mesylate] | 104% | 106%
14.2 µM | 8.96 µM | Cc1ccc(C(=O)OCc2ccc([C@@H](CN)C(=O)Nc3ccc4cnccc4c3)cc2)c(C)c1 [Netarsudil] | 104% | 94.1%
16.4 µM | 16.4 µM | CCCCCOc1ccccc1/C(=C\SC)n1ccnc1 [Neticonazole] | 48.1% | 51.1%
23.1 µM | 20.6 µM | COC(=O)C1=C(C)NC(C)=C(C(=O)OCCN(C)Cc2ccccc2)C1c1cccc([N+](=O)[O-])c1 (centres undefined) [Nicardipine] | 61.1% | 69.1%
0.712 µM | 0.712 µM | O=C(Nc1ccc([N+](=O)[O-])cc1Cl)c1cc(Cl)ccc1O [Niclosamide] | 88.5% | 82.8%
23.1 µM | 23.1 µM | COC(=O)C1=C(C)NC(C)=C(C(=O)OC)C1c1ccccc1[N+](=O)[O-] [Nifedipine] | 94.7% | 90.5%
> 45.8 µM | 10.3 µM | COC(=O)c1ccc2c(c1)NC(=O)/C2=C(\Nc1ccc(N(C)C(=O)CN2CCN(C)CC2)cc1)c1ccccc1 [Nintedanib] | – | 53.6%

IC50 cell viability (HCT116 [1]; ICRF193 0 nM) | IC50 cell viability (HCT116 [1]; ICRF193 200 nM) | Structure (SMILES) | efficacy (HCT116 [2]; ICRF193 0 nM) | efficacy (HCT116 [2]; ICRF193 200 nM)
18.3 µM | 18.3 µM | COC(=O)C1=C(C)NC(C)=C(C(=O)OCC(C)C)C1c1ccccc1[N+](=O)[O-] (centres undefined) [Nisoldipine] | 55.8% | 77.8%
13 µM | 18.3 µM | CC(=O)Oc1ccccc1C(=O)Nc1ncc([N+](=O)[O-])s1 [Nitazoxanide] | 104% | 122%
29.1 µM | 29.1 µM | O=[N+]([O-])c1ccc(Oc2ccc(N=C=S)cc2)cc1 [Nitroscanate] | 82.7% | 85.5%
0.0651 µM | 0.0461 µM | COC(=O)C[C@](O)(CCCC(C)(C)O)C(=O)O[C@@H]1C(OC)=C[C@]23CCCN2CCc2cc4c(cc2[C@H]13)OCO4 [Omacetaxine mepesuccinate] | 65.6% | 66.3%
> 45.8 µM | 6.51 µM | O=C(N[C@H]1CCS[C@H]2CCC[C@@H](C(=O)O)N2C1=O)[C@@H](S)Cc1ccccc1 [Omapatrilat] | – | 86.5%
18.3 µM | 23.1 µM | C/C(=C(/OCCOc1ccc(Cl)cc1)c1ccc(Cl)cc1Cl)n1ccnc1 [Omoconazole] | 41.1% | 62.4%
> 45.8 µM | 29.1 µM | Cc1c(Cl)c(C)[n+]([O-])c(Cl)c1-c1noc(-c2cc(O)c(O)c([N+](=O)[O-])c2)n1 [Opicapone] | – | 98.7%
20.6 µM | 18.3 µM | COc1ccc2c(c1)OC(C)(C)C(c1ccccc1)C2c1ccc(OCCN2CCCC2)cc1 (centres undefined) [Ormeloxifene] | 91% | 81.5%
23.1 µM | 16.4 µM | C=CC(=O)Nc1cc(Nc2nccc(-c3cn(C)c4ccccc34)n2)c(OC)cc1N(C)CCN(C)C [Osimertinib mesylate] | 142% | 101%
18.3 µM | 29.1 µM | O=c1[nH]c2ccccc2n1CCCN1CCN(C(c2ccccc2)c2ccccc2)CC1 [Oxatomide] | 73.2% | 84.5%
18.3 µM | > 45.8 µM | NC(=O)N1c2ccccc2CC(=O)c2ccccc21 [Oxcarbazepine] | 52.3% | –
16.4 µM | 13 µM | CN(C(=O)CN(CCO)CC(=O)N(C)C(C)(C)Cc1ccccc1)C(C)(C)Cc1ccccc1 [Oxethazaine] | 104% | 97.5%
14.6 µM | 2.06 µM | COC(=O)Nc1nc2cc([S+]([O-])c3ccccc3)ccc2[nH]1 (centres undefined) [Oxfendazole] | 44.2% | 49.7%
1.3 µM | 0.183 µM | CCCOc1ccc2[nH]c(NC(=O)OC)nc2c1 [Oxibendazole] | 43% | 40.1%
29.1 µM | 20.6 µM | Clc1ccc(CO/N=C(\Cn2ccnc2)c2ccc(Cl)cc2Cl)c(Cl)c1 [Oxiconazole nitrate] | 104% | 101%
11.6 µM | 9.2 µM | CCCCC1C(=O)N(c2ccccc2)N(c2ccc(O)cc2)C1=O (centres undefined) [Oxyphenbutazone] | 103% | 55.1%
16.4 µM | 29.1 µM | CCOC(=O)O[C@]1(C(=O)COC(=O)CC)CC[C@H]2[C@@H]3CCC4=CC(=O)C=C[C@]4(C)[C@H]3[C@@H](O)C[C@@]21C [PREDNICARBATE] | 108% | 93.8%
29.1 µM | 25.9 µM | NC(=O)[C@@H]1CCCN1C(=O)[C@H](Cc1c[nH]cn1)NC(=O)[C@@H]1CCC(=O)N1 [PROTIRELIN] | 69.8% | 64.8%
> 45.8 µM | 10.3 µM | O=C(O)c1cccc(-c2noc(-c3ccccc3F)n2)c1 [PTC-124] | – | 46.5%
20.6 µM | 18.3 µM | Cc1cc(/C=C/c2ccc3cc(N(C)C)ccc3[n+]2C)c(C)n1-c1ccccc1 [PYRVINIUM PAMOATE] | 111% | 93.2%
0.0058 µM | 0.00461 µM | CC(=O)O[C@H]1C(=O)[C@@]2(C)[C@H]([C@H](OC(=O)c3ccccc3)[C@]3(O)C[C@H](OC(=O)[C@H](O)[C@@H](NC(=O)c4ccccc4)c4ccccc4)C(C)=C1C3(C)C)[C@]1(OC(C)=O)CO[C@@H]1C[C@@H]2O [Paclitaxel] | 71.1% | 61.8%
29.1 µM | 16.4 µM | CC(=O)c1c(C)c2cnc(Nc3ccc(N4CCNCC4)cn3)nc2n(C2CCCC2)c1=O [Palbociclib] | 98.3% | 104%
> 45.8 µM | 29.1 µM | CNCCC=C1c2ccccc2CCc2ccccc21 [Pamelor] | – | 51.6%
5.8 µM | 5.17 µM | CCOC(=O)Cn1cccc1-c1nc(-c2ccc(OC)cc2)c(-c2ccc(OC)cc2)s1 [Pamicogrel] | 89.1% | 86.7%

Structure (SMILES) | IC50 cell viability (HCT116 [1]; ICRF193 0 nM) | IC50 cell viability (HCT116 [1]; ICRF193 200 nM) | efficacy (HCT116 [2]; ICRF193 0 nM) | efficacy (HCT116 [2]; ICRF193 200 nM)
O=C1c2c(O)ccc(O)c2C(=O)c2c(NCCNCCO)ccc(NCCNCCO)c21 [Mitoxantrone] | 2.31 µM | 2.06 µM | 90.7% | 96.4%
CC[C@@]1([C@@H]2O[C@@H]([C@H]3O[C@@](O)(CO)[C@H](C)C[C@@H]3C)C[C@@H]2C)CC[C@H]([C@]2(C)CC[C@]3(C[C@H](O)[C@@H](C)[C@@H]([C@@H](C)[C@@H](OC)[C@H](C)C(=O)O)O3)O2)O1 [Monensin sodium salt] | 3.18 µM | 3.18 µM | 81.1% | 83.4%
C[C@]12CC[C@H]3[C@@H](CCC4=CC(=O)CC[C@@H]43)[C@@H]1CC[C@@H]2OC(=O)CCc1ccco1 [Nandrolone furylpropionate] | 29.1 µM | 29.1 µM | 93.3% | 88%
CC[C@@H](C(=O)O)[C@@H]1O[C@@H]([C@@H](C)[C@H](O)[C@H](C)C(=O)[C@H](CC)[C@H]2O[C@]3(C=C[C@@H](O)[C@]4(CC[C@@](C)([C@H]5CC[C@](O)(CC)[C@H](C)O5)O4)O3)[C@H](C)C[C@@H]2C)[C@@H](C)C[C@@H]1C [Narasin] | 3.66 µM | 2.91 µM | 80.5% | 94.5%
COc1cccc2c1C(=O)c1c(O)c3c(c(O)c1C2=O)C[C@@](O)(C(=O)CO)C[C@@H]3O[C@H]1C[C@H](N2CCO[C@H](OC)C2)[C@H](O)[C@H](C)O1 [Nemorubicin] | 0.0259 µM | 0.0291 µM | 68.6% | 76.1%
Cc1ccc([N+](=O)[O-])[c]2c1[O][Hg]2 [Nitromersol] | 3.26 µM | 5.8 µM | 88.9% | 91.5%
CC(CCc1ccccc1)NC(C)C(O)c1ccc(O)cc1 (centres undefined) [Nylidrin] | > 45.8 µM | 16.4 µM | – | 40.7%
Oc1cccc2cccnc12 [OXYQUINOLINE HEMISULFATE] | 23.1 µM | 18.3 µM | 86.7% | 88.8%
C[C@@H]1O[C@@H](O[C@H]2C[C@@H](O)[C@]3(CO)[C@H]4[C@H](O)C[C@]5(C)[C@@H](C6=CC(=O)OC6)CC[C@]5(O)[C@@H]4CC[C@]3(O)C2)[C@H](O)[C@H](O)[C@H]1O [Ouabain octahydrate] | 0.116 µM | 0.13 µM | 104% | 84.4%
